Measured values: patent publication US20170327471A1, “Aryl sulphide and aryl sulphoxide derivatives having C-C-attached uracils as pesticides” (BAYER CROPSCIENCE AKTIENGESELLSCHAFT, priority 2014, published 2017)
Read-outs that look alike come from different tables or passages of the source.

What was measured:
Boophilus microplus = Boophilus microplus injection test; format: in vivo; settings: application rate, injection into engorged adult female cattle ticks, after 7 days
Procedure: 1. Boophilus microplus—Injection Test Solvent: dimethyl sulphoxide
To produce a suitable preparation of active compound, 10 mg of active compound are mixed with 0.5 ml of solvent and the concentrate is diluted with solvent to the desired concentration.
1 μl of the active compound solution is injected into the abdomen of 5 engorged adult female cattle ticks (Boophilus microplus). The animals are transferred into dishes and kept in a climate-controlled room.
Efficacy is assessed after 7 days by laying of fertile eggs. Eggs which are not visibly fertile are stored in a climate-controlled cabinet until the larvae hatch after about 42 days. An efficacy of 100% means that none of the ticks has laid any fertile eggs; 0% means that all the eggs are fertile.

Tetranychus urticae [1] = assay: Tetranychus urticae spray test, OP-resistant (bean plants); format: in vivo; settings: application rate 20 ppm, after 7 days
Procedure: 5. Tetranychus urticae-Spray Test, OP-Resistant Solvent: 7 parts by weight of dimethylformamide Emulsifier: alkylaryl polyglycol ether
(§1) To produce a suitable preparation of active compound, 1 part by weight of active compound is dissolved using the stated parts by weight of solvent and made up with water containing an emulsifier concentration of 1000 ppm until the desired concentration is attained. To produce further test concentrations, the preparation is diluted with emulsifier-containing water. If the addition of ammonium salts or/and penetrants is required, these are each added in a concentration of 1000 ppm to the preparation solution.
Bean plants (Phaseolus vulgaris) heavily infested by all stages of the greenhouse red spider mite (Tetranychus urticae) are sprayed with an active compound preparation of the desired concentration.
After 7 days, the efficacy in % is determined. 100% means that all the spider mites have been killed; 0% means that none of the spider mites have been killed.

Tetranychus urticae [2] = assay: Tetranychus urticae spray test, OP-resistant (bean leaf discs); format: in vivo; settings: application rate 500 g/ha, after 6 days
Procedure: 4. Tetranychus urticae—Spray Test, OP-Resistant Solvent: 78.0 parts by weight of acetone • • 1.5 parts by weight of dimethylformamide Emulsifier: alkylaryl polyglycol ether
as §1, with “water.” for “water. If the addition of ammonium salts or/and penetrants is required, these are each added in a concentration of 1000 ppm to the preparation solution.”
Discs of bean leaves (Phaseolus vulgaris) infested with all stages of the greenhouse red spider mite (Tetranychus urticae) are sprayed with an active compound preparation of the desired concentration.
After 6 days, the efficacy in % is determined. 100% means that all the spider mites have been killed; 0% means that none of the spider mites have been killed.

Tetranychus urticae [3] = assay: Tetranychus urticae drench test, OP-resistant; format: in vivo; settings: application rate 4 ppm, after 14 days, bean plants in soil
Procedure: 6. Tetranychus urticae—Drench Test, OP-Resistant Solvent: 7 parts by weight of dimethylformamide Emulsifier: 2 parts by weight of alkylaryl polyglycol ether
To produce a suitable preparation of active compound, 1 part by weight of active compound is mixed with the stated amounts of solvent and emulsifier, and the concentrate is diluted with water to the desired concentration, where the volume of soil to be drenched has to be taken into account. Here, it has to be made sure that a concentration of 40 ppm of emulsifier in the soil is not exceeded. To produce further test concentrations, the mixture is diluted with water.
Bean plants (Phaseolus vulgaris) in pots filled with soil, which plants are heavily infested by all stages of the greenhouse red spider mite (Tetranychus urticae), are watered with an active compound preparation of the desired concentration.
After 14 days, the efficacy in % is assessed. 100% means that all spider mites have been killed; 0% means that none of the spider mites have been killed.

[4] = logP by reversed-phase HPLC (EEC Directive 79/831 Annex V.A8); format: physicochemical; settings: for chromatographic logP: reversed-phase C18 HPLC column
Procedure: The logP values were determined in accordance with EEC Directive 79/831 Annex V.A8 by HPLC (High Performance Liquid Chromatography) using reversed-phase columns (C 18) by the following methods:
^[a] The LC-MS determination in the acidic range was effected at pH 2.7 with 0.1% aqueous formic acid and acetonitrile (contains 0.1% formic acid) as eluents; linear gradient from 10% acetonitrile to 95% acetonitrile. Called logP (HCOOH) in the table.
^[b] LC-MS determination in the neutral range was effected at pH 7.8 with 0.001 molar aqueous ammonium hydrogencarbonate solution and acetonitrile as eluents; linear gradient from 10% acetonitrile to 95% acetonitrile. Called logP (neutral) in the table.
Calibration was effected with unbranched alkan-2-ones (having 3 to 16 carbon atoms) with known logP values (logP values determined on the basis of the retention times by linear interpolation between two successive alkanones).

Meloidogyne incognita [5] = assay: Meloidogyne incognita test (soil drench, lettuce); format: in vivo; settings: application rate 8 ppm, after 21 days, lettuce in soil (loamy sand)
Procedure: 7. Meloidogyne incognita—Test Solvent: 7 parts by weight of dimethylformamide Emulsifier: 2.5 parts by weight of alkylaryl polyglycol ether To produce a suitable preparation of active compound, 1 part by weight of active compound is mixed with the stated amounts of solvent and emulsifier, and the concentrate is diluted with water to the desired concentration, where the volume of soil to be drenched has to be taken into account. Here, it has to be made sure that a concentration of 20 ppm of emulsifier in the soil is not exceeded. To produce further test concentrations, the mixture is diluted with water. Pots filled with soil (loamy sand) are watered with the active compound solution. An egg/larvae suspension of the southern root-knot nematode (Meloidogyne incognita) is added, lettuce seeds are scattered on the surface of the soil and covered with quartz sand. The lettuce seeds germinate and the plants develop. The galls develop on the roots. After 21 days, the nematicidal efficacy in % is determined by the formation of galls. 100% means that no galls were found; 0% means that the number of galls on the treated plants corresponds to that of the untreated control.

Meloidogyne incognita [6] = assay: Meloidogyne incognita test (sand, lettuce, solvent acetone); format: in vivo; settings: application rate 20 ppm, after 14 days, lettuce in sand
Procedure: 2. Meloidogyne incognita Test Solvent: 125.0 parts by weight of acetone To produce a suitable preparation of active compound, 1 part by weight of active compound is mixed with the stated amount of solvent and the concentrate is diluted with water to the desired concentration. Vessels are filled with sand, active compound solution, an egg/larvae suspension of the southern root-knot nematode (Meloidogyne incognita) and lettuce seeds. The lettuce seeds germinate and the plants develop. The galls develop on the roots. After 14 days, the nematicidal efficacy in % is determined by the formation of galls. 100% means that no galls were found; 0% means that the number of galls on the treated plants corresponds to the untreated control.

Panonychus ulmi = Panonychus ulmi spray test; format: in vivo; settings: application rate 20 ppm, after 14 days, plum trees
Procedure: 8. Panonychus ulmi—Spray Test Solvent: 7 parts by weight of dimethylformamide Emulsifier: alkylaryl polyglycol ether To produce a suitable preparation of active compound, 1 part by weight of active compound is dissolved in the parts by weight of solvent stated and filled with water containing an emulsifier concentration of 1000 ppm until the desired concentration is reached. To prepare further test concentrations, the mixture is diluted with emulsifier-containing water. If the addition of ammonium salts and/or penetrants (rapeseed oil methyl ester) is required, these are, after dilution of the finished preparation solution, added using a pipette, at a concentration of in each case 1000 ppm. Plum trees (Prunus domestica), infested by a mixed population of the European red mite (Panonychus ulmi) are treated by spraying with the active compound preparation of the desired concentration. After 14 days, the kill in % is determined. 100% means that all spider mites have been killed; 0% means that none of the spider mites have been killed.

Phaedon cochleariae = Phaedon cochleariae spray test; format: in vivo; settings: application rate 500 g/ha, after 7 days, Chinese cabbage leaf discs
Procedure: 3. Phaedon cochleariae—Spray Test Solvent: 78.0 parts by weight of acetone • • 1.5 parts by weight of dimethylformamide Emulsifier: alkylaryl polyglycol ether
as §1, with “water.” for “water. If the addition of ammonium salts or/and penetrants is required, these are each added in a concentration of 1000 ppm to the preparation solution.”
After 7 days, the efficacy in % is determined. 100% means that all the beetle larvae have been killed; 0% means that no beetle larvae have been killed.

[7] = acidic range, pH 2.7, 0.1% aqueous formic acid/acetonitrile
[8] = neutral range, pH 7.8, 0.001 molar aqueous ammonium hydrogencarbonate/acetonitrile
[9] = acidic range, pH 2.7, 0.1% aqueous formic acid/acetonitrile, read-out: logP (HCOOH) = logP[a]
[10] = neutral range, pH 7.8, 0.001 molar aqueous ammonium hydrogencarbonate/acetonitrile, read-out: logP (neutral) = logP[b]

SMILES	logP (HCOOH) = logP[a] [4, 7]	logP (neutral) = logP[b] [4, 8]	chromatographic logP [4, 9]	chromatographic logP [4, 10]	efficacy (no fertile eggs laid) (Boophilus microplus) [%]	efficacy (spider mites killed) (Tetranychus urticae [1]) [%]	efficacy (spider mites killed) (Tetranychus urticae [2]) [%]	efficacy (spider mites killed) (Tetranychus urticae [3]) [%]	nematicidal efficacy (formation of galls) (Meloidogyne incognita [5]) [%]	nematicidal efficacy (formation of galls) (Meloidogyne incognita [6]) [%]	efficacy (kill of spider mites) (Panonychus ulmi) [%]	efficacy (beetle larvae killed) (Phaedon cochleariae) [%]
CCn1c(-c2cc([S+]([O-])CC(F)(F)F)c(C)cc2F)cc(=O)n(CC)c1=O (centres unmarked) [Example I-10]	2.37	2.28	–	–	100	100	100	95	–	–	–	–
Cc1cc(F)c(-c2cc(=O)n(C)c(=O)n2C)cc1[S+]([O-])CC(F)(F)F (centres unmarked) [Example I-1, 6-{2-Fluoro-4-methyl-5-[(2,2,2-trifluoroethyl)sulphinyl]phenyl}-1,3-dimethylpyrimidine-2,4(1H,3H)-dione]	–	–	1.77	1.75	100	100	100	100	90	100	100	–
CCn1c(-c2cc(SCC(F)(F)F)c(C)cc2F)cc(=O)n(CC)c1=O [Example I-7]	3.54	3.47	–	–	–	100	90	–	–	–	–	–

More lines, main results first:

logP (HCOOH) = logP[a] [4, 7]	logP (neutral) = logP[b] [4, 8]	chromatographic logP [4, 9]	chromatographic logP [4, 10]	SMILES	efficacy (no fertile eggs laid) (Boophilus microplus) [%]	efficacy (spider mites killed) (Tetranychus urticae [1]) [%]	efficacy (spider mites killed) (Tetranychus urticae [2]) [%]	efficacy (spider mites killed) (Tetranychus urticae [3]) [%]	nematicidal efficacy (formation of galls) (Meloidogyne incognita [5]) [%]	nematicidal efficacy (formation of galls) (Meloidogyne incognita [6]) [%]	efficacy (kill of spider mites) (Panonychus ulmi) [%]	efficacy (beetle larvae killed) (Phaedon cochleariae) [%]
4.34	–	–	–	Cc1cc(F)c(-c2cc(=O)n(CC(F)(F)F)c(=S)n2C)cc1SCC(F)(F)F [Example I-15]	–	100	90	100	–	–	–	100
–	–	2.86	2.74	Cc1cc(F)c(-c2cc(=O)n(C)c(=O)n2C)cc1SCC(F)(F)F [Example I-2, 6-{2-Fluoro-4-methyl-5-[(2,2,2-trifluoroethyl)sulphanyl]phenyl}-1,3-dimethylpyrimidine-2,4(1H,3H)-dione]	100	100	100	99	–	90	–	83
